Test: RapidFire Mass Spectrometry (RFMS) Activity Assay: Compounds were solubilized in 100% DMSO to achieve 100 mM final compound concentration. Compound stock solutions were stored at RT. A series of dilutions were prepared in DMSO and mixed 8 times with 20 μL mixing volume. […] After 5 mins, 10 μL of 100 μM of substrate in buffer (100 mM Tris-HCl pH 7.6, 2 mM DTT, 2 mM CaCl2) was added and the reaction incubated for 60 mins at 37° C. The enzymatic reaction was quenched by addition of 40 μl of 5% TCA in ACN (1.7% TCA final concentration) stop solution. Arginine containing substrate and citrulline containing product (+1 Da mass shift) were subjected to solid phase extraction on Agilent RapidFire (RF) 300 system and detected on a coupled, triple quadrupole Agilent 6460 QQQ mass spectrometry (MS) device under application of multiple reaction monitoring (MRM) for quantitation.

IC50	Structure (SMILES)
> 10 µM	CN(C)C/C=C/C(=O)N[C@@H]1C[C@H](N)CN(C(=O)c2ccc3c(c2)nc(-c2cc4cccnc4n2CC2CC2)n3C)C1
> 10 µM	CN(C)C/C=C/C(=O)N[C@H]1CCN(C(=O)c2ccc3c(c2)nc(-c2cc4cccnc4n2CC2CC2)n3C)C[C@H]1N
